Assay results as given in patent publication US9187496B2 (priority 2009, dated 2015).
pEC50: −log10 of the molar value.

Experiments:
[1] = test system: HCV genotype 1b Conl strain subgenomic luciferase replicon (Zluc); test: Luciferase replicon assay, genotype 1b; assay type: cell-based; details: Hepatitis C virus, 72 h, read-out: EC50 1b
Procedure: (§1) The HCV luciferase replicon assay measures the ability of a test compound to inhibit HCV replication in cell culture after 3 days of treatment in a human hepatoma cell line (Huh-7) bearing a HCV replicon containing a luciferase-neomycin phosphotransferase fusion gene. The inhibition of HCV replication was measured by quantification of luciferase protein expression. Briefly, Huh-7 cells containing either the HCV genotype 1a H77 strain or genotype 1b Conl strain subgenomic luciferase replicon (H1a-luc or Zluc, respectively) were grown in DMEM containing glucose, L-glutamine and sodium pyruvate, 10% fetal bovine serum (FBS), 100 IU/mL penicillin, 100 μg/mL streptomycin, 2 mM GlutaMAX, non-essential amino acids and 0.25 (H1a-luc) or 0.5 (Zluc) mg/mL G418. GlutaMAX was obtained from Invitrogen, Corp.; all other media reagents were obtained from Mediatech, Inc. For dose-response testing, the cells were seeded in 96-well plates at 1×10^4 (H1a-luc) or 7.5×10^3 (Zluc) cells/well in a volume of 50 μL, and incubated at 37° C./5% CO2. Three hours after plating, 50 μL of ten 5-fold serial dilutions of compound were added, and cell cultures were incubated at 37° C./5% CO2 for 72 hours. In all cases, Huh-7 cells lacking the HCV replicon served as negative control. To assess luciferase expression, the media/compound was removed from the plates and ONE-glo Luciferase assay reagent (Promega) was added to each well. The assay plates were shaken for 3 minutes at room temperature and luciferase activity for each well was measured with a 1 sec read time on the Victor^3V multilabel counter using a 700 nm cut-off filter (Perkin Elmer). EC50 values were calculated from dose response curves from the resulting best-fit equations determined by Microsoft Excel and XLfit 4.1 software.

[2] = test system: HCV genotype 2a-specific NS5A gene within the 1b-replicon; test: Luciferase replicon assay, NS5A-intergenotypic stable cell line genotype 2a; assay type: cell-based; details: Hepatitis C virus, read-out: EC50 2a
From the text: (§2) The nucleotide sequences of the NS5A region of genotype 2a (GenBank Accession #AB047639), genotype 3a (GenBank Accession #D17763), and genotype 4a (GenBank Accession#DQ418788) were synthesized by an outside vendor. The NS5A region of each of these genotypes included the first 11 amino acids of the protease recognition sequence of genotype 1b, as well as the last 10 amino acids of genotype 1b. The NS5A gene cassettes were excised with site specific restriction endonucleases and ligated into a ZS11-luciferase genotype 1b backbone (backbone contains the genotype 1b NS3 protease, NS4a, NS4b, and NS5b coding regions) with similarly cut restriction enzyme sites. Thus, the newly constructed plasmid contains a genotype 2a-, 3a- or 4a-specific NS5A gene within the 1b-replicon.
(§3) These new intergenotypic plasmids were used to establish stable cell lines. RNA was generated from the NS5A intergenotypic plasmids and used in conjunction with a lipofectin reagent to transfect a cured Huh7 cell line. Transfected cells were selected for with G418. After selection has occurred the stable cell lines were propagated, tested for luciferase activity, and RT-PCR with genotype specific primers (either 1a, 2a, 3a, or 4a). Stable cell lines containing the intergenotypic replicon were then fully sequenced and analysed for proper expression of NS3, NS5A and NS5B proteins.
(§4) Drug titration analysis was performed using the luciferase replicon assay described herein.
as §1

[3] = test system: HCV genotype 3a-specific NS5A gene within the 1b-replicon; test: Luciferase replicon assay, NS5A-intergenotypic stable cell line genotype 3a; assay type: cell-based; details: Hepatitis C virus, read-out: EC50 3a
From the text: as §2, §3, §4, §1

[4] = test system: HCV genotype 4a-specific NS5A gene within the 1b-replicon; test: Luciferase replicon assay, NS5A-intergenotypic stable cell line genotype 4a; assay type: cell-based; details: Hepatitis C virus, read-out: EC50 4a
From the text: as §2, §3, §4, §1

[5] = Cytotoxicity evaluation in luciferase replicon cells (Cell Titer 96 AQueous One); assay type: cell-based, human; details: human; Table 1B, cellular viability
Procedure: For cytotoxicity evaluation, H1a-luc or Zluc cells were treated with compounds as described above and cellular viability was monitored using the Cell Titer 96 AQueous One Solution Cell Proliferation Assay (Promega). Plates were then read at 490 nm in a Victor^3V 1420 multilabel counter (Perkin Elmer) and CC50 concentrations were determined using Microsoft Excel and XLfit 4.1 software.

Structure (SMILES) | pEC50 [1] | pEC50 [2] | pEC50 [3] | pEC50 [4] | CC50 at 72 h [5] [nM]
COC(=O)N[C@H](C(=O)N1CCC[C@H]1c1ncc(-c2ccc(-c3csc4c(-c5ccc6[nH]c([C@@H]7CCCN7C(=O)[C@@H](NC(=O)OC)C(C)C)nc6c5)csc34)cc2)[nH]1)C(C)C [Compound A171, [(S)-1-((S)-2-{4-[4-(6-{2-[(S)-1-((S)-2-methoxycarbonylamino-3-methyl-butyryl)-pyrrolidin-2-yl]-3H-benzoimidazol-5-yl}-thieno[3,2-b]thiophen-3-yl)-phenyl]-1H-imidazol-2-yl}-pyrrolidine-1-carbonyl)-2-methyl-propyl]-carbamic acid methyl ester] | > 10.00 | 9.00 to 10.00 | 8.00 to 9.00 | > 10.00 | > 75000
COC(=O)N[C@H](C(=O)N1CCCC1c1ncc(-c2cc3sc(-c4ccc(-c5cnc([C@@H]6CCCN6C(=O)[C@H](NC(=O)OC)c6ccccc6)[nH]5)cc4)cc3s2)[nH]1)C(C)C (some centres unmarked) [Compound A217] | > 10.00 | > 10.00 | > 10.00 | > 10.00 | > 75000
COC(=O)N[C@H](C(=O)N1CCC[C@H]1c1nc2ccc(-c3cc4sc(-c5ccc(-c6c[nH]c([C@@H]7CCCN7C(=O)[C@H](NC(=O)OC)c7ccccc7)n6)cc5)cc4s3)cc2[nH]1)C(C)C [Compound A215, [(S)-1-((S)-2-{6-[5-(4-{(S)-2-[1-((R)-2-methoxycarbonylamino-2-phenyl-acetyl)-pyrrolidin-2-yl]-1H-imidazol-4-yl}-phenyl)-thieno[3,2-b]thiophen-2-yl)-1H-benzoimidazol-2-yl}-pyrrolidine-1-carbonyl)-2-methyl-propyl]-carbamic acid methyl ester] | > 10.00 | > 10.00 | > 10.00 | > 10.00 | > 75000
COC(=O)N[C@H](C(=O)N1CCCC1c1nc(-c2cc3sc(-c4cnc([C@@H]5CCCN5C(=O)[C@@H](NC(=O)OC)C(C)C)[nH]4)cc3s2)c[nH]1)C(C)C (some centres unmarked) [Compound A101] | > 10.00 | 8.00 to 9.00 | 8.00 to 9.00 | 8.00 to 9.00 | > 75000
COC(=O)N[C@H](C(=O)N1CCC[C@H]1c1ncc(-c2ccc(-c3csc4c(-c5ccc6[nH]c([C@@H]7CCCN7C(=O)[C@H](NC(=O)OC)c7ccccc7)nc6c5)csc34)cc2)[nH]1)C(C)C [Compound A172, [(S)-1-((S)-2-{5-[4-(6-{(S)-2-[1-((R)-2-methoxycarbonylamino-2-phenyl-acetyl)-pyrrolidin-2-yl]-3H-benzoimidazol-5-yl}-thieno[3,2-b]thiophen-3-yl)-phenyl]-1H-imidazol-2-yl}-pyrrolidine-1-carbonyl)-2-methyl-propyl]-carbamic acid methyl ester] | > 10.00 | > 10.00 | > 10.00 | > 10.00 | > 75000
COC(=O)N[C@H](C(=O)N1CCCC1c1ncc(-c2ccc(-n3ccc4c(-c5cnc(C6CCCN6C(=O)[C@@H](NC(=O)OC)C(C)C)[nH]5)csc43)c(Cl)c2)[nH]1)C(C)C (some centres unmarked) [Compound A213] | > 10.00 | – | – | – | 10000 to 75000
COC(=O)N[C@H](C(=O)N1CCC[C@H]1c1ncc(-c2ccc(-c3csc4c(-c5cnc([C@@H]6CCCN6C(=O)[C@H](NC(=O)OC)c6ccccc6)[nH]5)csc34)cc2)[nH]1)C(C)C [Compound A200, [(S)-1-((S)-2-{4-[4-(6-{2-[(S)-1-((R)-2-methoxycarbonylamino-2-phenyl-acetyl)-pyrrolidin-2-yl]-3H-imidazol-4-yl}-thieno[3,2-b]thiophen-3-yl)-phenyl]-1H-imidazol-2-yl}-pyrrolidine-1-carbonyl)-2-methyl-propyl]-carbamic acid methyl ester] | > 10.00 | > 10.00 | > 10.00 | > 10.00 | > 75000
COC(=O)N[C@H](C(=O)N1CCC[C@H]1c1nc2cc(-c3csc4c(-c5ccc(-c6cnc([C@@H]7CCCN7C(=O)[C@H](NC(=O)OC)c7ccccc7)[nH]6)cc5)csc34)ccc2[nH]1)C(C)C [Compound A169, [(S)-1-((S)-2-{6-[6-(4-{(S)-2-[1-((R)-2-methoxycarbonylamino-2-phenyl-acetyl)-pyrrolidin-2-yl]-3H-imidazol-4-yl}-phenyl)-thieno[3,2-b]thiophen-3-yl]-1H-benzoimidazol-2-yl}-pyrrolidine-1-carbonyl)-2-methyl-propyl]-carbamic acid methyl ester] | > 10.00 | > 10.00 | > 10.00 | > 10.00 | > 75000
COC(=O)N[C@H](C(=O)N1CCC[C@H]1c1ncc(-c2csc3c(-c4ccc5[nH]c([C@@H]6CCCN6C(=O)[C@@H](NC(=O)OC)C(C)C)nc5c4)csc23)[nH]1)C(C)C [Compound A173, ((S)-1-{(S)-2-[6-(6-{(S)-2-[1-((S)-2-methoxycarbonylamino-3-methyl-butyryl)-pyrrolidin-2-yl]-1H-imidazol-4-yl}-thieno[3,2-b]thiophen-3-yl)-1H-benzoimidazol-2-yl]-pyrrolidine-1-carbonyl}-2-methyl-propyl)-carbamic acid methyl ester] | > 10.00 | 8.00 to 9.00 | 8.00 to 9.00 | 8.00 to 9.00 | 10000 to 75000
COC(=O)N[C@H](C(=O)N1CCCC1c1nc(-c2cc3sc(-c4ccc(-c5cnc([C@@H]6CCCN6C(=O)[C@@H](c6ccccc6)N6CCCCC6)[nH]5)cc4)cc3o2)c[nH]1)C(C)C (some centres unmarked) [Compound A212] | > 10.00 | > 10.00 | > 10.00 | > 10.00 | 10000 to 75000
